This experiment concerns platelets. As to the kind of experiment: measurement of platelet function using the thrombus monitoring system C (microchip 4, citrated whole blood mixed with ADP under flow). It counts as cell-based. Conditions: for time after the beginning of the measurement at which an obvious platelet aggregate was formed in the thrombus formation chamber: collagen/PT reagent coated chamber. The protocol: The stirring section 413 was in the shape of a circle having a diameter of […] and narrowing in fan-like fashion in the direction toward the downstream, and its depth was 1.2 mm. The stirring bar 417 was a stirring bar in the shape of a cylinder having a length of 2 mm and a diameter of 1 mm, whose surface was coated with nickel.
As the thrombus-inducing agent, 24 μL of a mixture of collagen type I (Nitta Gelatin Inc.) and PT reagent (Sysmex Corporation) was applied in a square shape sizing 1 cm×1 cm, and dried under reduced pressure at −0.08 MPa for 3 hours. The coating with the thrombus-inducing material was carried out such that the merged channel 403 was not passing the center of the square area on which the thrombus-inducing material was applied, that is, such that the merged channel 403 was passing 2.5 mm away from an edge of the square, when the substrate 400 and the substrate 410 were bonded to each other. As the collagen type I, one having a concentration of 3 mg/ml was used. As the PT reagent, one prepared by dissolving 1 vial of PT reagent manufactured by Sysmex Corporation in 2 ml of purified water and dialyzing the resulting solution against purified water overnight, followed by mixing the resultant at a ratio of 1:1 was used.
To the blood reservoir 433, the first pump 420 was connected, and the first connection nozzle 435 and the second connection nozzle 436 were connected to the second pump 421 and the third pump 422, respectively.
Mineral oil was filled in the first pump 420; purified water and 1 μM or 2 μM ADP solution were filled in the second pump 421; and 0.5 M EDTA (pH 10) solution was filled in the third pump 422.
Blood prepared by mixing the blood immediately after collection with 3.2% sodium citrate solution at a volume ratio between the blood and the sodium citrate solution being 9:1 was filled in the blood reservoir 433.
The programs executed for the first pump 420, second pump 421 and the third pump 422 were the same with those in Example 7 (Table 3). […]

Take `Nc1ncnc2c1ncn2[C@@H]1O[C@H](COP(=O)(O)OP(=O)(O)O)[C@@H](O)[C@H]1O` [ADP, adenosine diphosphate]: the “time after the beginning of the measurement at which an obvious platelet aggregate was formed in the thrombus formation chamber” value was 15 min (1 μM ADP solution in second pump) and 10 min (2 μM ADP solution in second pump). Further, the “increase in pressure due to platelet aggregate (pressure sensor)” value (1 μM or 2 μM ADP in second pump) is “no increase in pressure occurred”.

The values above are taken from patent publication US8425840B2, “Microchip and blood monitoring device” (Fujimori Kogyo Co., Ltd., priority 2007, dated 2013).
